Measured values taken from patent publication US8367659B2, “Oxazinyl isoflavonoid compounds, medicaments and use” (Marshall Edwards, Inc., priority 2007, dated 2013).

How the values were obtained:
[1] = system: CP70; assay: Anti-cancer activity, CP70 ovarian cancer cells (MTT); assay type: cell-based; conditions: 120 h, 5 days
[2] = system: NO synthesis in RAW 264.7 murine macrophages; assay: LPS-induced NO synthesis in RAW 264.7 murine macrophages (Griess); assay type: cell-based, mouse; conditions: 10 μM; relative to vehicle alone; FIG. 6
Protocol: The mouse macrophage cell line RAW 264.7 was cultured in DMEM supplemented with foetal calf serum (FCS), […] glutamine and 50 U/ml penicillin/streptomycin. Cells were treated with either test compound (in 0.025% DMSO) or vehicle alone, and added one hour before 50 ng/ml LPS. After incubation for 24 h, culture media was collected for PGE2 or TXB2 measurement by ELISA (Cayman Chemical), and TNFα measurement using an ELISA (Becton Dickinson). Nitrite concentration is a quantitative indicator of NO production and was determined by the Griess Reaction. Briefly, 100 μL of Griess reagent was added to 50 μL of each supernatant in duplicate. The absorbance at 550 nm was measured (Molecular Devices, SpectraMax 250 microplate spectrophotometer, CA, USA), and nitrite concentrations were determined against a standard curve of sodium nitrite. The percentage nitrite inhibition was calculated as: [100−(nitrite concentration of sample/nitrite of vehicle control LPS cells)×100]. Results Test compounds were examined a concentration of 10 μM. […] Consequently, to assess the effect of test compounds on various analytes, cell viability was taken into consideration with the use of the formula: Actual effect of test compound=measured effect−(effect on cell viability×measured effect)

[3] = Free radical scavenging with DPPH; conditions: DPPH, 20 minutes, absorbance 517 nm; Table 4; read-out: Free radical scavenging ability EC50
Protocol: The antioxidant (free radical trapping) activity of test compounds was assessed using the stable free radical compound 2,2-diphenyl-1-picrylhydrazyl (DPPH). A stock solution of DPPH was prepared at a concentration of […] in ethanol and mixed for 10 minutes prior to use. Test compounds at a concentration of 100 μM were reacted with DPPH for, 20 minutes, alter which time the absorbance at 517 nm was determined. Initial screening of was done at 100 μM. The change in absorbance at 517 nm was compared to a reagent blank (DPPH with ethanol alone). […] The IC50 values were estimated as the concentration of test compound that caused a 0.6 change in absorbance (with 1.2 absorbance units representing total scavenging of the DPPH radical).
The antioxidant (free radical trapping) activity of test compounds was assessed using the stable free radical compound 2,2-diphenyl-1-picrylhydrazyl (DPPH). A stock solution of DPPH was prepared […] in ethanol and mixed for 10 minutes prior to use. Initial screening of test compound at a concentration of 100 μM was reacted with DPPH for 20 minutes, after which time the absorbance at 517 nm was determined. The change in absorbance was compared to a reagent blank (DPPH with ethanol alone). […] The IC50 value was estimated as the concentration of test compound that causes a 0.6 change in absorbance (with 1.2 absorbance units representing total scavenging of the DPPH radical).

[4] = system: MM200; assay: Anti-cancer activity, MM200 melanoma cells (MTT); assay type: cell-based; conditions: for IC50: 120 h, 5 days, MTT
[5] = system: neonatal foreskin fibroblasts (NFF); assay: Toxicity to normal cells, neonatal foreskin fibroblasts; assay type: cell-based; conditions: Fibroblast; normal, non-transformed cells; read-out: IC50 μM, NFF Fibroblast
Protocol: (§1) IC50 values were determined for each cell line. Cells were seeded in 96-well plates at an appropriate cell density as determined from growth kinetics analysis and cultured for 5 days in the absence and presence of the test compounds. Cell proliferation was assessed after the addition of 20 μl of 3-4,5 dimethylthiazol-2,5-diphenyl tetrazolium bromide (MTT, 2.5 mg/ml in PBS, Sigma) for 3-4 hrs at 37° C. according to manufacturer's instructions. IC50 values were calculated from semi-log plots of % of control proliferation on the y-axis against log dose on the x-axis.
(§2) The neonatal foreskin fibroblasts (NFF) were a gift from Dr. Peter Parsons (Queensland Institute of Medical Research). Rabbit kidney (RK-13) cells were obtained from Miller Whalley (Macquarie University). Both cell lines were cultured in RPMI supplemented with 10% FCS(CSL, Australia), penicillin (100 U/ml), streptomycin ([…]), L-glutamine (2 mM) and sodium bicarbonate (1.2 g/L), and cultured at 37° C. in a humidified atmosphere of 5% CO2. IC50 values were determined as described above.

[6] = system: Rabbit kidney (RK-13) cells; assay: Toxicity to normal cells, rabbit kidney (RK-13) cells; assay type: cell-based; conditions: Oryctolagus cuniculus, normal, non-transformed cells, read-out: IC50 μM, RK Rabbit Kidney
Protocol: as §1, §2

[7] = system: HPAC; assay: Anti-cancer activity, HPAC pancreatic cancer cells (MTT); assay type: cell-based; conditions: Homo sapiens, 120 h, 5 days
[8] = system: human umbilical vein smooth muscle cells (HUVSMC); assay: Proliferation of human umbilical vein smooth muscle cells (MTT); assay type: cell-based; conditions: 10 μM; 10% FCS, 5 days; FIG. 8
Protocol: The effect of test compounds on human umbilical vein smooth muscle cells (HUVSMC) was examined. Cells were seeded into 96 well plates at a low seeding rate of 1.6×10^3 cells per well, and allowed to attach for 24 hours. The cells were then washed twice with medium without FCS and incubated in medium without FCS for 20 hours to serum starve them. Analogue was prepared in medium without FCS at 20 μM and added to the plates and incubated for one hour. Final analogue concentration was therefore 10 μM. The cells were then stimulated by adding medium +20% FCS, to give a final FCS concentration of 10%. The cells were incubated until the control cells i.e. those with FCS and no compound, were just confluent (5 days). An MTT assay was performed, and difference in absorbance in analogue treated cells from the control was calculated using the formula: test/control*100−100. Results
The effect of test compounds on human umbilical vein smooth muscle cells (HUVSMC), was examined. Cells, tissue explants from a neonate (HRI—passage 2), were seeded into 96 well plates at 1×10^3 cells per well, and allowed to attach for 24 hours. They were then washed twice and incubated in medium without foetal calf serum (FCS) for 24-48 hours to serum-starve them. Test compounds were prepared in medium without FCS and added to the plates and incubated for one hour. Medium with FCS was added to give a final concentration of 10% and the plates incubated for 4-5 days until the controls were just confluent.

[9] = target: T1, GAL4-PPARγ fusion protein (Homo sapiens, UniProt P37231); assay: PPARγ activity in transfected HEK293 cells (beta-lactamase reporter); assay type: cell-based; conditions: FIG. 13: 1 μM
T1 construct: host or cells: HEK293 (human embryonic kidney), stably transfected
Protocol: Human HEK293 cells, stably transfected with the PPARγ ligand binding domain fused with the DNA binding domain of the GAL4 protein (GAL4-PPARγ fusion protein), produce beta-lactamase when incubated with PPARγ ligands. Transfected human kidney embryonic cells (Invitrogen Inc., Carlsbad, Calif.) were seeded onto matrigel in 96-well plates and allowed to attach overnight. The following day, vehicle alone (DMSO) or test compound at 1, 5 and 10 μM was added at varying concentrations to cells and incubated for 16-18 hours. Cells were then loaded with a FRET-based fluorescent substrate to assess beta-lactamase activity. Cells were protected from light, and incubated at room temperature for 2 h. Plates were read on a fluorescence plate reader with an excitation wavelength of 409 nm and emission wavelengths of 460 nm and 530 nm. Results were expressed as a ratio of these two wavelengths after the background (cell-free control wells) had been subtracted. PPARγ activity was thus determined by measuring beta-lactamase activity as assessed by a fluorescent product to substrate ratio.

[10] = system: PGE2 synthesis in RAW 264.7 murine macrophages; assay: LPS-induced PGE2 synthesis in RAW 264.7 murine macrophages; assay type: cell-based, mouse; conditions: 10 μM; relative to vehicle alone; FIG. 3
Protocol: (§3) The mouse macrophage cell line RAW 264.7 was cultured in DMEM supplemented with foetal calf serum (FCS), […] glutamine and 50 U/ml penicillin/streptomycin. Cells were treated with either test compound (in 0.025% DMSO) or vehicle alone, and added one hour before 50 ng/ml LPS. After incubation for 24 h, culture media was collected for PGE2 or TXB2 measurement by ELISA (Cayman Chemical), and TNFα measurement using an ELISA (Becton Dickinson). Test compounds were examined a concentration of 10 μM. […] Consequently, to assess the effect of test compounds on various analytes, cell viability was taken into consideration with the use of the formula: Actual effect of test compound=measured effect−(effect on cell viability×measured effect)

[11] = system: cancer cell lines; assay: Anti-cancer activity, cancer cell lines tested as a group (MTT); assay type: cell-based; conditions: CP70, HPAC and MM200
[12] = system: TXB2 synthesis in RAW 264.7 murine macrophages; assay: LPS-induced TXB2 synthesis in RAW 264.7 murine macrophages; assay type: cell-based, mouse; conditions: 10 μM; relative to vehicle alone; FIG. 4
Protocol: as §3

T1 sequence (P37231 238-503 limits assumed): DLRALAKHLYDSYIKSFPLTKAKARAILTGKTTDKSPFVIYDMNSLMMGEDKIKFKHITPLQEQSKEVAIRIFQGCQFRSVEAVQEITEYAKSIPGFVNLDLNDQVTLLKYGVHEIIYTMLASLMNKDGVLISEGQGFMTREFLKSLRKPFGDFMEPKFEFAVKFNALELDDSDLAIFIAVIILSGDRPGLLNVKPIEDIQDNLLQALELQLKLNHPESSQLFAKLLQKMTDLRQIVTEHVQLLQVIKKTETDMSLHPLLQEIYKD
T1 sequence (P04386 1-147 partner limits assumed): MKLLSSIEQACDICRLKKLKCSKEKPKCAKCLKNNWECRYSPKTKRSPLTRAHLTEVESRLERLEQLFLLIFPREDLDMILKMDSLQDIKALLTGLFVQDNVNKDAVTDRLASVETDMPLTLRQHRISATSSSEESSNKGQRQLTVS

IC50 [1] [µM]	EC50 [3] [µM]	IC50 [4] [µM]	IC50 [7] [µM]	PPARγ activation, increase in beta-lactamase activity over media only control [9]	Structure (SMILES)	mean change of LPS-induced NO synthesis [2]	toxicity to the MM200 melanoma cell line [4]	IC50 [5] [µM]	IC50 [6] [µM]	effect on proliferation of HUVSMCs induced by FCS [8]	mean change of LPS-induced PGE2 synthesis [10]	activity against CP70, HPAC and MM200 cell lines [11]	mean change of LPS-induced TXB2 synthesis [12]
30.7 ± 22	20	8.9 ± 0.1	32.2		CCCN1COc2cc3c(cc2C1)C=C(c1ccc(O)cc1)CO3 [Compound 3, 4-(3-Propyl-2,3,4,8-tetrahydrochromeno[6,7-e][1,3]oxazin-7-yl)phenol]	greatest inhibition	selectively toxic	56.2 ± 12.6	4.8				
9.98 ± 0.5	22.5	36.3 ± 6	48.8	PPARγ agonist activity	Oc1ccc(C2=Cc3cc4c(cc3OC2)OCN(c2ccccc2)C4)cc1 [Compound 7, 4-(3-Phenyl-2,3,4,8-tetrahydrochromeno[6,7-e][1,3]oxazin-7-yl)phenol]	greatest inhibition		48.8 ± 12.2	56.6	significantly inhibited the proliferation			
8.6	24	14.6	6.83		COc1ccc(C2=C(c3ccc(O)cc3)COc3cc4c(cc32)CN(Cc2ccc(Cl)cc2)CO4)cc1 [Compound 24, 4-(3-(4-Chlorobenzyl)-6-(4-methoxyphenyl)-2,3,4,8-tetrahydrochromeno[6,7-e][1,3]oxazin-7-yl)-phenol]	greatest inhibition					greatest inhibition	active	greatest inhibition
